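1) Cells in 96-well plates. 2) Compound, 48 h, 5 concentrations. 3) Linear interpolation between surrounding doses. 4) Unreached endpoint = highest concentration. The concentration for 50% growth inhibition is given as GI50.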 Activity calls are given as the source filed them. Cut-off read from the data, not from the text of the source: active = GI50 up to about 1.1 µM and inactive = higher.
Columns and labels:
Experiment in all cases: DTP human tumour cell line panel, 48 h
A498 = test system: A498
COLO 205 = test system: COLO 205
HT-29 = test system: HT-29
K562 = test system: K562
LOX IMVI = test system: LOX IMVI
Malme-3M = test system: Malme-3M
NCI-H460 = test system: NCI-H460
OVCAR-3 = test system: OVCAR-3
OVCAR-4 = test system: OVCAR-4
SF-268 = test system: SF-268
SF-295 = test system: SF-295
SNB-19 = test system: SNB-19
SNB-75 = test system: SNB-75
SW-620 = test system: SW-620
UACC-257 = test system: UACC-257
MOLT-4 = test system: MOLT-4

Measured: GI50

O=c1nc(NC(c2ccccc2)(c2ccccc2)c2ccccc2)ccn1CCNCCn1ccc(NC(c2ccccc2)(c2ccccc2)c2ccccc2)nc1=O
inactive: A498 27 µM | COLO 205 10.7 µM | HT-29 5.83 µM | K562 3.46 µM | LOX IMVI 2.84 µM | Malme-3M 11.8 µM | NCI-H460 11.8 µM | OVCAR-3 11.9 µM | OVCAR-4 14.2 µM | SF-268 4.84 µM | SF-295 11.5 µM | SNB-19 9.27 µM | SNB-75 20.2 µM | SW-620 6.64 µM | UACC-257 5.82 µM

CC1CC2C(=O)N(c3ccccc3)C(=O)C2c2c1c1ccccc1n2Cc1ccccc1 (configuration not stated)
inactive: COLO 205 49.8 µM | HT-29 > 100 µM | K562 14.5 µM | LOX IMVI > 100 µM | MOLT-4 58.5 µM | Malme-3M > 100 µM | NCI-H460 > 100 µM | OVCAR-3 > 100 µM | OVCAR-4 > 100 µM | SF-268 > 100 µM | SF-295 > 100 µM | SW-620 > 100 µM

C1=C(c2ccccc2)CN(c2ccccc2)OC1
inactive: COLO 205 > 100 µM | HT-29 44.4 µM | K562 77.4 µM | LOX IMVI > 100 µM | MOLT-4 74.5 µM | Malme-3M > 100 µM | NCI-H460 > 100 µM | OVCAR-3 > 100 µM | OVCAR-4 > 10 µM | SF-268 79.3 µM | SNB-19 > 100 µM | SNB-75 66.4 µM | SW-620 > 100 µM

CCOc1ccc2c(c1)[n+]([O-])c(-c1ccc(Cl)cc1)c(N)[n+]2[O-]
inactive: A498 > 100 µM | COLO 205 > 100 µM | HT-29 > 100 µM | K562 > 100 µM | MOLT-4 44.3 µM | Malme-3M > 100 µM | NCI-H460 > 100 µM | OVCAR-3 > 100 µM | OVCAR-4 > 100 µM | SF-268 > 100 µM | SF-295 > 100 µM | SNB-19 > 100 µM | SNB-75 85.1 µM | SW-620 > 100 µM | UACC-257 > 100 µM

CCOC(=O)CC[C@H](NC(=O)c1nc[nH]c1[N+](=O)[O-])C(=O)OCC
inactive: A498 > 100 µM | COLO 205 > 100 µM | K562 > 100 µM | LOX IMVI > 100 µM | MOLT-4 > 100 µM | Malme-3M > 100 µM | NCI-H460 > 100 µM | OVCAR-3 > 100 µM | OVCAR-4 > 100 µM | SF-268 > 100 µM | SF-295 > 100 µM | SNB-19 > 100 µM | UACC-257 > 100 µM

N#C/C(c1nc2ccccc2[nH]1)=c1\s/c(=C/c2ccc(Cl)cc2)c(=O)n1-c1ccccc1
inactive: A498 > 100 µM | COLO 205 > 100 µM | K562 > 100 µM | LOX IMVI > 100 µM | MOLT-4 > 100 µM | Malme-3M > 100 µM | NCI-H460 > 100 µM | OVCAR-3 > 100 µM | OVCAR-4 > 100 µM | SF-268 > 100 µM | SNB-19 > 100 µM | SNB-75 37.3 µM | SW-620 > 100 µM | UACC-257 > 100 µM

NC(=O)N/N=C(\CCC(=O)N(Cc1ccccc1)Cc1ccccc1)CC(=O)c1ccc(F)cc1
inactive: COLO 205 > 100 µM | HT-29 > 100 µM | K562 > 100 µM | LOX IMVI > 100 µM | MOLT-4 > 100 µM | Malme-3M > 100 µM | NCI-H460 > 100 µM | OVCAR-3 > 100 µM | OVCAR-4 > 100 µM | SF-268 > 100 µM | SF-295 > 100 µM | SNB-19 > 100 µM | SW-620 > 100 µM | UACC-257 > 100 µM

Nc1ccc(C(=O)N/C(=C\c2ccc3c(c2)OCO3)c2nc3ccccc3s2)cc1
inactive: COLO 205 18.4 µM | HT-29 12.6 µM | K562 5.38 µM | MOLT-4 2.79 µM | Malme-3M > 10 µM | OVCAR-3 16.9 µM | OVCAR-4 12.2 µM | SF-268 11.9 µM | SF-295 16.7 µM | SNB-19 15.2 µM | SW-620 11.5 µM

CCOC(=O)/C(Br)=C1\OC(=O)c2ccccc2-c2ccccc21
inactive: COLO 205 20.8 µM | HT-29 33.2 µM | K562 21.1 µM | LOX IMVI 36.8 µM | MOLT-4 25.9 µM | Malme-3M 47.2 µM | OVCAR-3 37.4 µM | SF-268 43.8 µM | SF-295 36.5 µM | SNB-75 26.4 µM | SW-620 42.5 µM | UACC-257 58.5 µM

c1ccc2c3c([nH]c2c1)C1(CCCCC1)c1c([nH]c2ccccc12)C31CCCCC1
inactive: A498 24.2 µM | COLO 205 37.9 µM | HT-29 > 100 µM | K562 35.6 µM | LOX IMVI 34.4 µM | MOLT-4 47.5 µM | Malme-3M 23.1 µM | NCI-H460 34.7 µM | OVCAR-3 > 100 µM | OVCAR-4 10.6 µM | SF-268 23.6 µM | SF-295 24.7 µM | SNB-19 54.5 µM | SNB-75 15.9 µM | SW-620 > 100 µM | UACC-257 50.4 µM

O=[N+]([O-])c1ccc(N2C[N+](c3ccccc3)=NC(c3ccccc3)=N2)cc1
inactive: COLO 205 50.5 µM | HT-29 43.9 µM | K562 27 µM | LOX IMVI 26.1 µM | MOLT-4 43.5 µM | Malme-3M 91.2 µM | NCI-H460 39.4 µM | OVCAR-3 32.2 µM | OVCAR-4 44.5 µM | SF-268 29.4 µM | SF-295 35.6 µM | SNB-19 38.6 µM | SNB-75 99.3 µM | SW-620 68.4 µM | UACC-257 38.5 µM

CCO/C([O-])=C(\C(=O)c1ccc([N+](=O)[O-])cc1)[n+]1c(C)n(C)c2ccccc21
inactive: A498 > 100 µM | COLO 205 > 100 µM | HT-29 > 100 µM | K562 > 100 µM | LOX IMVI > 100 µM | MOLT-4 > 100 µM | Malme-3M > 100 µM | NCI-H460 > 100 µM | OVCAR-3 > 100 µM | OVCAR-4 > 100 µM | SF-268 > 100 µM | SF-295 > 100 µM | SNB-19 > 100 µM | SNB-75 > 100 µM | SW-620 > 100 µM | UACC-257 > 100 µM

O=C(NCCNCCO)c1cccc2ccc(-c3ccccc3)nc12
inactive: A498 1.8 µM | COLO 205 3.1 µM | HT-29 4.13 µM | K562 5.97 µM | LOX IMVI 2.7 µM | MOLT-4 1.54 µM | NCI-H460 2.02 µM | OVCAR-3 7.66 µM | OVCAR-4 6.5 µM | SF-268 6.53 µM | SF-295 5.58 µM | SNB-19 6.49 µM | SNB-75 10.4 µM | SW-620 3.15 µM | UACC-257 3.47 µM

OC1OCC(COc2cc(Cl)c(Cl)cc2Cl)OC1O (configuration not stated)
inactive: A498 44.5 µM | COLO 205 52.1 µM | HT-29 65.8 µM | K562 33.6 µM | MOLT-4 32.2 µM | Malme-3M 61.2 µM | NCI-H460 44.5 µM | OVCAR-3 25.5 µM | OVCAR-4 31.8 µM | SF-268 68.2 µM | SF-295 45.8 µM | SNB-19 33 µM | SNB-75 26.2 µM | SW-620 19.1 µM | UACC-257 35.9 µM

NNC(=O)CCC(=O)NC1C2CC3CC(C2)CC1C3 (configuration not stated)
inactive: A498 > 100 µM | COLO 205 > 100 µM | HT-29 > 100 µM | K562 > 100 µM | LOX IMVI > 100 µM | MOLT-4 43.5 µM | Malme-3M > 100 µM | NCI-H460 > 100 µM | OVCAR-4 > 100 µM | SF-268 > 100 µM | SF-295 > 100 µM | SNB-19 > 100 µM | SNB-75 > 100 µM | SW-620 > 100 µM | UACC-257 > 100 µM

COc1ccc(OCC(=O)O)c2c1CCC(C(C)C)C2=O (configuration not stated)
inactive: A498 > 100 µM | COLO 205 > 100 µM | HT-29 > 100 µM | K562 > 100 µM | LOX IMVI > 100 µM | MOLT-4 > 100 µM | Malme-3M > 100 µM | NCI-H460 > 100 µM | OVCAR-3 > 100 µM | OVCAR-4 > 100 µM | SF-295 > 100 µM | SNB-19 > 100 µM | SW-620 > 100 µM | UACC-257 > 100 µM

CC1CC[C@]2(C(=O)O)CCC3(C)C(=CCC4[C@@]5(C)CC[C@H](OS(=O)(=O)c6ccccc6)C(C)(C)C5CC[C@]43C)[C@@H]2[C@H]1C (some centres not stated)
inactive: A498 > 100 µM | COLO 205 38.1 µM | HT-29 > 100 µM | K562 51.4 µM | LOX IMVI 83 µM | MOLT-4 34.3 µM | Malme-3M > 100 µM | NCI-H460 > 100 µM | OVCAR-3 > 100 µM | OVCAR-4 > 100 µM | SF-268 > 100 µM | SF-295 > 100 µM | SNB-19 > 100 µM | SNB-75 > 100 µM | SW-620 > 100 µM | UACC-257 > 100 µM

Cc1nc2ccccc2c(=O)[nH]1
inactive: A498 > 100 µM | COLO 205 > 100 µM | HT-29 > 100 µM | K562 > 100 µM | LOX IMVI > 100 µM | MOLT-4 > 100 µM | Malme-3M > 100 µM | NCI-H460 > 100 µM | OVCAR-3 > 100 µM | OVCAR-4 > 100 µM | SF-268 > 100 µM | SF-295 > 100 µM | SNB-19 > 100 µM | SNB-75 37.1 µM | SW-620 > 100 µM | UACC-257 > 100 µM
